Results taken from US4575498A, “Method for restoring depleted purine nucleotide pools” (priority 1983, dated 1986).

How the values were obtained:
[1] = AICAriboside plasma concentration during infusion; type: in vivo, mongrel dogs; conditions: dog, after 42 min of infusion, 100 mM at 1.9 ml/min into left atrium
Protocol: (§1) Animal Preparation--Seven adult mongrel dogs were anesthetized intramuscularly with 40 mg of morphine sulfate and intravenously with 80 mg/kg of chloralose, an endotraceal tube was inserted, and ventilation was maintained with an Emerson volume-cycled respirator and 100% oxygen. The heart was exposed through a left lateral thoracotomy, polyvinyl chloride catheters (3-mm outer diameter) were inserted into the left atrium and into the aorta through the right femoral artery, and a Statham TTQ electromagnetic flow meter probe was positioned around the ascending aorta. The aortic pressure catheter was connected to a Statham P23Db transducer (Statham Instruments, Inc., Oxnard, CA) with the zero reference at the midchest level. Aortic flow was measured with a Howell Instruments Series 1000 Flowmeter, and stroke volume and cardiac output were calculated from the aortic flow measurement. All hemodynamic data were monitored continuously throughout the course of the study. […]
(§2) After hemodynamic parameters had stabilized, regional myocardial blood flow was measured by injecting radioactively labled microspheres. […] Venous and arterial blood samples were also obtained at 42 min. of infusion, and regional myocardial blood flow was measured at 10 and 39 min. of AICAriboside infusion. […]

[2] = system: cardiac and skeletal muscle; test: Creatine phosphate content of cardiac and skeletal muscle; type: in vivo, mongrel dogs; conditions: throughout the study (6.8±0.4 and 10.6±0.5 μmol/g at beginning)
Protocol: as §1, §2

postischemic myocardium = test: Myocardial nucleotide and creatine phosphate content, coronary occlusion and reperfusion; type: in vivo, dogs
Protocol: Catheters were placed in the left atrium and aorta, and a snare positioned around the left anterior descending coronary artery in 15 open-chest dogs. Regional myocardial blood flow was measured and transmural tissue samples were obtained using known techniques. Blood flow measurements and tissue samples were obtained prior to and just before release of a 12-minute coronary occlusion. The chest was closed and the animals allowed to awaken. Twenty-four hours later, the animals were anesthetized, the chest opened, blood flow measured, and tissue samples obtained. No hemodynamic measurements were made on the animals.
In seven animals, 200 mM AICAriboside (Sigma Chemical Co.) was infused into the left atrial catether at either 14 μmol/min (n=2) or 37 μmol/min (n=5) beginning with coronary occlusion and continuing for 24 hours. Eight control animals were infused with an equal volume of saline over 24 hours.
Nucleotide and creatine phosphate analyses were performed by high performance liquid chromatography on acid extracts of the tissue as previously described. Nucleotide analysis is described in Example 1, and creatine phosphate analysis is described in Juengling and Kammermeier, Anal. Biochem., 102, 358-361 (1980).
All comparisons between AICAriboside and saline treated animals were done by unpaired analyses.

[3] = endo, 24 Hr postischemic (first column)
[4] = endo, 24 Hr postischemic (second column so headed)
[5] = epi, 24 Hr postischemic (first column)
[6] = epi, 24 Hr postischemic (second column so headed)
[7] = epi, 24 Hr postischemic (second column so headed), P < 0.05 vs saline

SMILES: NC(=O)c1ncn([C@@H]2O[C@H](CO)[C@@H](O)[C@H]2O)c1N [AICAriboside, 5-amino-4-imidazolecarboxamide riboside]
- concentration at 0.7 h [1]: 336 ± 26 µM
- creatine phosphate content [2]: did not vary significantly
- GTP content restoration (postischemic myocardium; 24 hours of reperfusion, saline 82% (epi), 78% (endo) of nonischemic levels): restored to nonischemic levels
- ADP (postischemic myocardium; [3]): 0.78 ± 0.09 μmol/g wet wt
- AMP (postischemic myocardium; [3]): 0.056 ± 0.019 μmol/g wet wt
- CP (creatine phosphate) (postischemic myocardium; [3]): 7.8 ± 1.1 μmol/g wet wt
- CTP (postischemic myocardium; [3]): 0.052 ± 0.005 μmol/g wet wt
- NAD (postischemic myocardium; [3]): 0.57 ± 0.02 μmol/g wet wt
- UTP (postischemic myocardium; [3]): 0.121 ± 0.013 μmol/g wet wt
- IMP (postischemic myocardium; endo, 24 Hr postischemic (first column), P < 0.05 vs saline): 0.027 ± 0.007 μmol/g wet wt
- ADP (postischemic myocardium; [4]): 0.75 ± 0.07 μmol/g wet wt
- AMP (postischemic myocardium; [4]): 0.041 ± 0.005 μmol/g wet wt
- CP (creatine phosphate) (postischemic myocardium; [4]): 6.9 ± 0.5 μmol/g wet wt
- CTP (postischemic myocardium; [4]): 0.056 ± 0.004 μmol/g wet wt
- NAD (postischemic myocardium; [4]): 0.60 ± 0.05 μmol/g wet wt
- UTP (postischemic myocardium; [4]): 0.106 ± 0.011 μmol/g wet wt
- IMP (postischemic myocardium; endo, 24 Hr postischemic (second column so headed), P < 0.05 vs saline): 0.017 ± 0.004 μmol/g wet wt
- ADP (postischemic myocardium; endo, occlusion): 0.86 ± 0.06 μmol/g wet wt
- AMP (postischemic myocardium; endo, occlusion): 0.089 ± 0.012 μmol/g wet wt
- CP (creatine phosphate) (postischemic myocardium; endo, occlusion): 2.0 ± 0.3 μmol/g wet wt
- CTP (postischemic myocardium; endo, occlusion): 0.016 ± 0.003 μmol/g wet wt
- IMP (postischemic myocardium; endo, occlusion): 0.008 ± 0.002 μmol/g wet wt
- NAD (postischemic myocardium; endo, occlusion): 0.45 ± 0.02 μmol/g wet wt
- UTP (postischemic myocardium; endo, occlusion): 0.055 ± 0.007 μmol/g wet wt
- increase in ATP content (postischemic myocardium; endo, previously ischemic region, 24 hours of reperfusion, saline 21%): 63%
- ATP content vs saline-treated (postischemic myocardium; epi and endo, previously ischemic region, 24 hours of reperfusion, P<0.001): greater in the AICAriboside group
- ADP (postischemic myocardium; [5]): 0.73 ± 0.05 μmol/g wet wt
- AMP (postischemic myocardium; [5]): 0.048 ± 0.009 μmol/g wet wt
- CP (creatine phosphate) (postischemic myocardium; [5]): 7.1 ± 0.5 μmol/g wet wt
- CTP (postischemic myocardium; [5]): 0.051 ± 0.004 μmol/g wet wt
- NAD (postischemic myocardium; [5]): 0.56 ± 0.03 μmol/g wet wt
- UTP (postischemic myocardium; [5]): 0.104 ± 0.121 μmol/g wet wt
- IMP (postischemic myocardium; epi, 24 Hr postischemic (first column), P < 0.05 vs saline): 0.025 ± 0.007 μmol/g wet wt
- ADP (postischemic myocardium; [6]): 0.70 ± 0.05 μmol/g wet wt
- AMP (postischemic myocardium; [6]): 0.036 ± 0.005 μmol/g wet wt
- CP (creatine phosphate) (postischemic myocardium; [6]): 7.8 ± 0.5 μmol/g wet wt
- CTP (postischemic myocardium; [6]): 0.051 ± 0.005 μmol/g wet wt
- UTP (postischemic myocardium; [6]): 0.096 ± 0.008 μmol/g wet wt
- IMP (postischemic myocardium; [7]): 0.015 ± 0.004 μmol/g wet wt
- NAD (postischemic myocardium; [7]): 0.55 ± 0.02 μmol/g wet wt
- ADP (postischemic myocardium; epi, occlusion): 0.99 ± 0.11 μmol/g wet wt
- AMP (postischemic myocardium; epi, occlusion): 0.135 ± 0.045 μmol/g wet wt
- CP (creatine phosphate) (postischemic myocardium; epi, occlusion): 2.9 ± 0.7 μmol/g wet wt
- CTP (postischemic myocardium; epi, occlusion): 0.023 ± 0.003 μmol/g wet wt
- IMP (postischemic myocardium; epi, occlusion): 0.007 ± 0.001 μmol/g wet wt
- NAD (postischemic myocardium; epi, occlusion): 0.47 ± 0.03 μmol/g wet wt
- UTP (postischemic myocardium; epi, occlusion): 0.061 ± 0.007 μmol/g wet wt
- increase in ATP content (postischemic myocardium; epi, previously ischemic region, 24 hours of reperfusion, saline 2%): 41%
- GTP content vs saline (postischemic myocardium; epicardium and endocardium of previously ischemic region, 24 hours of reperfusion, P<0.003): greater in the AICAriboside group
- AMP or ADP content vs saline (postischemic myocardium; postischemic region): no detectable differences
- UTP, CTP, or NAD^+ content vs saline (postischemic myocardium; postischemic region): no statistically significant differences
- total adenine nucleotide content (ATP+ADP+AMP) vs saline (postischemic myocardium; postischemic region): greater in the AICAriboside group
- creatine phosphate content restoration (postischemic myocardium; postischemic regions, both groups): restored to preocclusion levels
- creatine phosphate fall at end of occlusion (postischemic myocardium; vs saline): fell to a comparable extent
- percentage drop in ATP during ischemia (postischemic myocardium; vs saline): comparable in both groups
